Assay results as given in PubChem BioAssay AID1918948 (Molecular Pharmacology Branch, DTP, NCI, 2023).
pIC50: −log10 of the molar value.

Test system: K-562 leukemia growth, % test/control
Experiment: Anticancer human tumor K-562 cell line growth inhibition;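 note: spheroids exposed to compounds for 7 days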;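 for viability, T/C: 100% = DMSO vehicle wells and lower values mean fewer viable cells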
Details: spheroids with HUVEC and MSC; for pIC50: curve of first compound; for viability, T/C: stronger effect = lower value
Outline: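 Multicellular complex spheroids of tumor cells with human endothelial cells (HUVEC) and mesenchymal stem cells; the LSD1 inhibitor iadademstat was combined with standard-of-care or investigational agents. Top concentration at or near clinical Cmax, half-log dilutions; final DMSO ≤0.25%.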

[1] = second compound 0.1 µM, first compound 0.00949 µM
[2] = second compound 0.1 µM, first compound 0.03 µM
[3] = second compound 0.1 µM, first compound 0.0949 µM
[4] = second compound 0.1 µM, first compound 0.3 µM
[5] = second compound 0.316 µM, first compound 0.00949 µM
[6] = second compound 0.316 µM, first compound 0.03 µM
[7] = second compound 0.316 µM, first compound 0.0949 µM
[8] = second compound 0.316 µM, first compound 0.3 µM
[9] = second compound 1 µM, first compound 0.00949 µM
[10] = second compound 1 µM, first compound 0.03 µM
[11] = second compound 1 µM, first compound 0.0949 µM
[12] = second compound 1 µM, first compound 0.3 µM
[13] = second compound 3.16 µM, first compound 0.00949 µM
[14] = second compound 3.16 µM, first compound 0.03 µM
[15] = second compound 3.16 µM, first compound 0.0949 µM
[16] = second compound 3.16 µM, first compound 0.3 µM
[17] = second compound 10 µM, first compound 0.00949 µM
[18] = second compound 10 µM, first compound 0.03 µM
[19] = second compound 10 µM, first compound 0.0949 µM
[20] = second compound 10 µM, first compound 0.3 µM

In the case of CC1COCCN1c1cc(C2(S(C)(=N)=O)CC2)nc(-c2ccnc3[nH]ccc23)n1 (stereo not given) + NC1CCC(NC2CC2c2ccccc2)CC1, the pIC50 (second compound 0.1 µM) was 6.24, the pIC50 (second compound 0.316 µM) was 6.22 and the pIC50 (second compound 1 µM) was 6.21. The pIC50 (second compound 3.16 µM) was 6.22, the pIC50 (second compound 10 µM) was 6.29 and the viability, T/C (second compound 0.1 µM, first compound 0.0316 µM) was 101%. It also gave a viability, T/C (second compound 0.1 µM, first compound 0.1 µM) of 97.5%, a viability, T/C (second compound 0.1 µM, first compound 0.316 µM) of 81.8% and a viability, T/C (second compound 0.1 µM, first compound 1 µM) of 21.2%. For the same compound, the viability, T/C (second compound 0.1 µM, first compound 3.16 µM) was 3.64%, the viability, T/C (second compound 0.1 µM, first compound 10 µM) was 2.72% and the viability, T/C (second compound 0.316 µM, first compound 0.0316 µM) was 104%. It also gave a viability, T/C (second compound 0.316 µM, first compound 0.1 µM) of 96.9%, a viability, T/C (second compound 0.316 µM, first compound 0.316 µM) of 84.5% and a viability, T/C (second compound 0.316 µM, first compound 1 µM) of 23.1%. It also gave a viability, T/C (second compound 0.316 µM, first compound 3.16 µM) of 4.12%, a viability, T/C (second compound 0.316 µM, first compound 10 µM) of 2.74% and a viability, T/C (second compound 1 µM, first compound 0.0316 µM) of 106%. For the same compound, the viability, T/C (second compound 1 µM, first compound 0.1 µM) was 101%, the viability, T/C (second compound 1 µM, first compound 0.316 µM) was 86.2% and the viability, T/C (second compound 1 µM, first compound 1 µM) was 23.4%. For the same compound, the viability, T/C (second compound 1 µM, first compound 3.16 µM) was 3.81%, the viability, T/C (second compound 1 µM, first compound 10 µM) was 2.62% and the viability, T/C (second compound 3.16 µM, first compound 0.0316 µM) was 103%. It also gave a viability, T/C (second compound 3.16 µM, first compound 0.1 µM) of 99.7%, a viability, T/C (second compound 3.16 µM, first compound 0.316 µM) of 84.5% and a viability, T/C (second compound 3.16 µM, first compound 1 µM) of 22.9%. It also gave a viability, T/C (second compound 3.16 µM, first compound 3.16 µM) of 3.69%, a viability, T/C (second compound 3.16 µM, first compound 10 µM) of 2.79% and a viability, T/C (second compound 10 µM, first compound 0.0316 µM) of 96.6%. The viability, T/C (second compound 10 µM, first compound 0.1 µM) was 98.2%, the viability, T/C (second compound 10 µM, first compound 0.316 µM) was 73.2% and the viability, T/C (second compound 10 µM, first compound 1 µM) was 17.3%. For the same compound, the viability, T/C (second compound 10 µM, first compound 3.16 µM) was 3.62% and the viability, T/C (second compound 10 µM, first compound 10 µM) was 2.14%.

For CCN(c1cc(-c2ccc(CN3CCOCC3)cc2)cc(C(=O)NCc2c(C)cc(C)[nH]c2=O)c1C)C1CCOCC1 + NC1CCC(NC2CC2c2ccccc2)CC1, the pIC50 (second compound 0.1 µM) was less than 5.52, the pIC50 (second compound 0.316 µM) was less than 5.52 and the pIC50 (second compound 1 µM) was less than 5.52. It also gave a pIC50 (second compound 3.16 µM) of less than 5.52, a pIC50 (second compound 10 µM) of 5.65 and a viability, T/C [1] of 112%. The viability, T/C [2] was 107%, the viability, T/C [3] was 106% and the viability, T/C [4] was 106%. It also gave a viability, T/C (second compound 0.1 µM, first compound 0.949 µM) of 106%, a viability, T/C (second compound 0.1 µM, first compound 3 µM) of 98.8% and a viability, T/C [5] of 112%. It also gave a viability, T/C [6] of 109%, a viability, T/C [7] of 107% and a viability, T/C [8] of 108%. For the same compound, the viability, T/C (second compound 0.316 µM, first compound 0.949 µM) was 105%, the viability, T/C (second compound 0.316 µM, first compound 3 µM) was 101% and the viability, T/C [9] was 113%. The viability, T/C [10] was 112%, the viability, T/C [11] was 106% and the viability, T/C [12] was 109%. For the same compound, the viability, T/C (second compound 1 µM, first compound 0.949 µM) was 105%, the viability, T/C (second compound 1 µM, first compound 3 µM) was 99.5% and the viability, T/C [13] was 113%. For the same compound, the viability, T/C [14] was 110%, the viability, T/C [15] was 107% and the viability, T/C [16] was 106%. The viability, T/C (second compound 3.16 µM, first compound 0.949 µM) was 104%, the viability, T/C (second compound 3.16 µM, first compound 3 µM) was 95% and the viability, T/C [17] was 103%. For the same compound, the viability, T/C [18] was 101%, the viability, T/C [19] was 93.7% and the viability, T/C [20] was 86%. For the same compound, the viability, T/C (second compound 10 µM, first compound 0.949 µM) was 69.4% and the viability, T/C (second compound 10 µM, first compound 3 µM) was 42.9%.

Nc1ncn(C2CC(O)C(CO)S2)c(=O)n1 (stereo not given) + NC1CCC(NC2CC2c2ccccc2)CC1 gave a pIC50 (second compound 0.1 µM) of 6.76, a pIC50 (second compound 0.316 µM) of 6.77 and a pIC50 (second compound 1 µM) of 6.83. It also gave a pIC50 (second compound 3.16 µM) of 6.87, a pIC50 (second compound 10 µM) of 7.22 and a viability, T/C (second compound 0.1 µM, first compound 0.000949 µM) of 102%. It also gave a viability, T/C (second compound 0.1 µM, first compound 0.003 µM) of 106%, a viability, T/C [1] of 107% and a viability, T/C [2] of 95.6%. The viability, T/C [3] was 69%, the viability, T/C [4] was 33.5% and the viability, T/C (second compound 0.316 µM, first compound 0.000949 µM) was 106%. It also gave a viability, T/C (second compound 0.316 µM, first compound 0.003 µM) of 108%, a viability, T/C [5] of 108% and a viability, T/C [6] of 95.7%. The viability, T/C [7] was 68%, the viability, T/C [8] was 33% and the viability, T/C (second compound 1 µM, first compound 0.000949 µM) was 108%. It also gave a viability, T/C (second compound 1 µM, first compound 0.003 µM) of 110%, a viability, T/C [9] of 107% and a viability, T/C [10] of 94.3%. For the same compound, the viability, T/C [11] was 65.2%, the viability, T/C [12] was 26.6% and the viability, T/C (second compound 3.16 µM, first compound 0.000949 µM) was 108%. For the same compound, the viability, T/C (second compound 3.16 µM, first compound 0.003 µM) was 111%, the viability, T/C [13] was 106% and the viability, T/C [14] was 89.2%. It also gave a viability, T/C [15] of 60.3%, a viability, T/C [16] of 28.4% and a viability, T/C (second compound 10 µM, first compound 0.000949 µM) of 102%. The viability, T/C (second compound 10 µM, first compound 0.003 µM) was 107%, the viability, T/C [17] was 95.9% and the viability, T/C [18] was 70.7%. It also gave a viability, T/C [19] of 36.5% and a viability, T/C [20] of 18.6%.
